Where “and” joins values, the source holds several entries; their conditions need not be identical. Identical values can stand only once. Like-named read-outs stand apart in the source and are kept apart here.
What was measured:
GHS-R1a [1] = molecular target: T1, GHS-R1a (Homo sapiens, UniProt Q92847); test: Radioligand binding assay, displacement of [125I-His9]ghrelin(1-28); conditions: for IC50: GHS-R1a transfected HEK293 cells, [125I-His9]ghrelin(1-28) radioligand, determined in applicant's lab; for binding affinity with GHS-R1a, stated in words: radioligand binding assay
T1 construct: expressed in transfected cells; host or cells: HEK293
Protocol: The affinity for GHS-R1a was determined using a radioligand binding assay. […] The resulting suspension was incubated for 20 min with shaking (550 rpm). […] All binding assays were performed in triplicate.

GHS-R1a [2] = molecular target: T1, GHS-R1a; conditions: cited from earlier work; for Ki: literature value, read-out: Ki values reported in the literature

T1 sequence (Q92847 whole entry): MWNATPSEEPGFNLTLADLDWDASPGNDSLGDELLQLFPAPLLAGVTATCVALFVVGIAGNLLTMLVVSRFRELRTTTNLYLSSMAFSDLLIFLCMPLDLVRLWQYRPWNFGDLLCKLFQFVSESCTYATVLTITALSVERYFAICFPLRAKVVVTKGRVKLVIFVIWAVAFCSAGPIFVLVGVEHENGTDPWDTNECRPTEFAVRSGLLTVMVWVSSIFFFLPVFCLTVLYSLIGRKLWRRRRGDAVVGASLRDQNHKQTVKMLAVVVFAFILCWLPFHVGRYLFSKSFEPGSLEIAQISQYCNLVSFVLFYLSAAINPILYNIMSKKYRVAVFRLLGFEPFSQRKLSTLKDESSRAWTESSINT

| Compound | IC50 (GHS-R1a [1]) | also measured |
| --- | --- | --- |
| CC(C)N1CCC[C@H](Cn2c(-c3ccccc3F)nc3ccc(Oc4ccc5ncsc5c4)cc3c2=O)C1 [Compound 10b, (S)-6-(benzo[d]thiazol-6-yloxy)-2-(2-fluorophenyl)-3-((1-isopropylpiperidin-3-yl)methyl)quinazolin-4(3H)-one] | 0.02 nM | binding affinity with GHS-R1a, stated in words (GHS-R1a [1]): sub-nanomolar binding affinity |
| Cc1ccccc1-c1nc2ccc(Oc3ccc(Oc4ccc(F)cn4)nc3)cc2c(=O)n1C[C@H]1CCCN(CCO)C1 [Compound 5d, (S)-6-((6-((5-fluoropyridin-2-yl)oxy)pyridin-3-yl)oxy)-3-((1-(2-hydroxyethyl)piperidin-3-yl)methyl)-2-(o-tolyl)quinazolin-4(3H)-one] | 65.2 nM | – |
| Cc1ccccc1-c1nc2ccc(Oc3ccc4ncsc4c3)cc2c(=O)n1C[C@H]1CCCN(C(C)C)C1 [Compound 5g, (S)-6-(benzo[d]thiazol-6-yloxy)-3-((1-isopropylpiperidin-3-yl)methyl)-2-(o-tolyl)quinazolin-4(3H)-one] | 1.8 nM | binding affinity with GHS-R1a, stated in words (GHS-R1a [1]): equivalent binding affinity to natural ghrelin |
| CC(C)N1CCC[C@H](Cn2c(-c3ccccc3F)nc3ccc(Oc4ccc(F)cn4)cc3c2=O)C1 [Compound 10a, (S)-2-(2-fluorophenyl)-6-((5-fluoropyridin-2-yl)oxy)-3-((1-isopropylpiperidin-3-yl)methyl)quinazolin-4(3H)-one] | 70.5 nM | – |
| Cc1ccccc1-c1nc2ccc(Oc3ccc(F)nc3)cc2c(=O)n1C[C@H]1CCCN(CCF)C1 [Compound 5c, (S)-3-((1-(2-fluoroethyl)piperidin-3-yl)methyl)-6-((6-fluoropyridin-3-yl)oxy)-2-(o-tolyl)quinazolin-4(3H)-one] | 64.2 nM and 62.4 nM | – |
| Cc1ccccc1-c1nc2ccc(Oc3ccc4ncsc4c3)cc2c(=O)n1C[C@H]1CCCNC1 [Compound 4e, (S)-6-(benzo[d]thiazol-6-yloxy)-3-(piperidin-3-ylmethyl)-2-(o-tolyl)quinazolin-4(3H)-one] | 5.3 nM | – |
| O=c1c2cc(Oc3ccc(F)cc3)ccc2nc(-c2ccc(OCCO)cc2F)n1C[C@H]1CCCNC1 [Compound 14b, (S)-2-(2-fluoro-4-(2-hydroxyethoxy)phenyl)-6-(4-fluorophenoxy)-3-(piperidin-3-ylmethyl)quinazolin-4(3H)-one] | 19.8 nM | – |
| Cc1ccccc1-c1nc2ccc(Oc3ccc4ncsc4c3)cc2c(=O)n1C[C@H]1CCCN(CCO)C1 [Compound 5i, (S)-6-(benzo[d]thiazol-6-yloxy)-3-((1-(2-hydroxyethyl)piperidin-3-yl)methyl)-2-(o-tolyl)quinazolin-4(3H)-one] | 0.4 nM | binding affinity with GHS-R1a, stated in words (GHS-R1a [1]): sub-nanomolar binding affinity |
| Cc1ccccc1-c1nc2ccc(Oc3ccc(F)cn3)cc2c(=O)n1C[C@H]1CCCN(C(=O)C(C)F)C1 (stereo partly drawn) [Compound 5j, 3-(((3S)-1-(2-fluoropropanoyl)piperidin-3-yl)methyl)-6-((5-fluoropyridin-2-yl)oxy)-2-(o-tolyl)quinazolin-4(3H)-one] | > 1000 nM | – |
| Cc1ccccc1-c1nc2ccc(C(=O)c3ccc(F)cc3)cc2c(=O)n1C[C@H]1CCCN(C(C)C)C1 [Compound 20, (S)-6-(4-fluorobenzoyl)-3-((1-isopropylpiperidin-3-yl)methyl)-2-(o-tolyl)quinazolin-4(3H)-one] | 3.8 nM | binding affinity with GHS-R1a, stated in words (GHS-R1a [1]): equivalent binding affinity to natural ghrelin |
| O=c1c2cc(Oc3ccc4ncsc4c3)ccc2nc(-c2ccccc2F)n1C[C@H]1CCCN(CCF)C1 [Compound 10c, (S)-6-(benzo[d]thiazol-6-yloxy)-3-((1-(2-fluoroethyl)piperidin-3-yl)methyl)-2-(2-fluorophenyl)quinazolin-4(3H)-one] | 8.1 nM | – |
| CC(C)N1CCC[C@H](Cn2c(-c3ccc(OCCO)cc3F)nc3ccc(Oc4ccc(F)cn4)cc3c2=O)C1 [Compound 15a, (S)-2-(2-fluoro-4-(2-hydroxyethoxy)phenyl)-6-((5-fluoropyridin-2-yl)oxy)-3-((1-isopropylpiperidin-3-yl)methyl)quinazolin-4(3H)-one] | 40.1 nM | – |
| Cc1ccccc1-c1nc2ccc(Oc3ccc(F)cn3)cc2c(=O)n1C[C@H]1CCCN(CCF)C1 [Compound 5b, (S)-3-((1-(2-fluoroethyl)piperidin-3-yl)methyl)-6-((5-fluoropyridin-2-yl)oxy)-2-(o-tolyl)quinazolin-4(3H)-one] | 20.6 nM | – |
| Cc1ccccc1-c1nc2ccc(Oc3ccc(Oc4ccc(F)cn4)nc3)cc2c(=O)n1C[C@H]1CCCNC1 [Compound 4d, (S)-6-((6-((5-fluoropyridin-2-yl)oxy)pyridin-3-yl)oxy)-3-(piperidin-3-ylmethyl)-2-(o-tolyl)quinazolin-4(3H)-one] | 82.9 nM | – |
| Cc1ccccc1-c1nc2ccc(Oc3ccc(F)nc3)cc2c(=O)n1C[C@H]1CCCNC1 [Compound 4c, (S)-6-((6-fluoropyridin-3-yl)oxy)-3-(piperidin-3-ylmethyl)-2-(o-tolyl)quinazolin-4(3H)-one] | 68.5 nM | – |
| CC(C)N1CCC[C@H](Cn2c(-c3ccc(OCCF)cc3F)nc3ccc(Oc4ccc(F)cn4)cc3c2=O)C1 [Compound 17a, (S)-2-(2-fluoro-4-(2-fluoroethoxy)phenyl)-6-((5-fluoropyridin-2-yl)oxy)-3-((1-isopropylpiperidin-3-yl)methyl)quinazolin-4(3H)-one] | 17.6 nM | – |
| CC(C)N1CCC[C@H](Cn2c(-c3ccc(OCCO)cc3F)nc3ccc(Oc4ccc(F)cc4)cc3c2=O)C1 [Compound 15b, (S)-2-(2-fluoro-4-(2-hydroxyethoxy)phenyl)-6-(4-fluorophenoxy)-3-((1-isopropylpiperidin-3-yl)methyl)quinazolin-4(3H)-one] | 2.3 nM | binding affinity with GHS-R1a, stated in words (GHS-R1a [1]): equivalent binding affinity to natural ghrelin |
| Cc1ccccc1-c1nc2ccc(Oc3ccc4ncsc4c3)cc2c(=O)n1C[C@H]1CCCN(CCF)C1 [Compound 5e, (S)-6-(benzo[d]thiazol-6-yloxy)-3-((1-(2-fluoroethyl)piperidin-3-yl)methyl)-2-(o-tolyl)quinazolin-4(3H)-one] | 9.3 nM | – |
| O=c1c2cc(Oc3ccc(F)cn3)ccc2nc(-c2ccccc2F)n1C[C@H]1CCCNC1 [Compound 9a, (S)-2-(2-fluorophenyl)-6-((5-fluoropyridin-2-yl)oxy)-3-(piperidin-3-ylmethyl)quinazolin-4(3H)-one] | 935 nM | – |
| CC(C)N1CCC[C@H](Cn2c(-c3ccc(OCCF)cc3F)nc3ccc(Oc4ccc(F)cc4)cc3c2=O)C1 [Compound 17b, (S)-2-(2-fluoro-4-(2-fluoroethoxy)phenyl)-6-(4-fluorophenoxy)-3-((1-isopropylpiperidin-3-yl)methyl)quinazolin-4(3H)-one] | 0.33 nM | binding affinity with GHS-R1a, stated in words (GHS-R1a [1]): sub-nanomolar binding affinity |
| O=c1c2cc(Oc3ccc(F)cn3)ccc2nc(-c2ccc(OCCO)cc2F)n1C[C@H]1CCCNC1 [Compound 14a, (S)-2-(2-fluoro-4-(2-hydroxyethoxy)phenyl)-6-((5-fluoropyridin-2-yl)oxy)-3-(piperidin-3-ylmethyl)quinazolin-4(3H)-one] | 353 nM | – |
| CC(=O)N1CCN(c2ccc(Oc3ccc4nc(-c5ccccc5C)n(C[C@H]5CCCNC5)c(=O)c4c3)cc2)CC1 [Compound 4f, (S)-6-(4-(4-acetylpiperazin-1-yl)phenoxy)-3-(piperidin-3-ylmethyl)-2-(o-tolyl)quinazolin-4(3H)-one] | 587 nM | – |
| Cc1ccccc1-c1nc2ccc(C(=O)c3ccc(F)cc3)cc2c(=O)n1C[C@H]1CCCNC1 [Compound 19, (S)-6-(4-fluorobenzoyl)-3-(piperidin-3-ylmethyl)-2-(o-tolyl)quinazolin-4(3H)-one] | 4 nM | – |
| O=c1c2cc(Oc3ccc4ncsc4c3)ccc2nc(-c2ccccc2F)n1C[C@H]1CCCNC1 [Compound 9b, (S)-6-(benzo[d]thiazol-6-yloxy)-2-(2-fluorophenyl)-3-(piperidin-3-ylmethyl)quinazolin-4(3H)-one] | 16 nM | – |
| Cc1ccccc1-c1nc2ccc(Oc3ccc(F)cc3)cc2c(=O)n1C[C@H]1CCCN(CCF)C1 [Compound 5a, (S)-3-((1-(2-fluoroethyl)piperidin-3-yl)methyl)-6-(4-fluorophenoxy)-2-(o-tolyl)quinazolin-4(3H)-one] | 29.5 nM | – |
| Cc1ccccc1-c1nc2ccc(Oc3ccc(F)cc3)cc2c(=O)n1C[C@H]1CCCNC1 [Compound 4a, (S)-6-(4-fluorophenoxy)-3-(piperidin-3-ylmethyl)-2-(o-tolyl)quinazolin-4(3H)-one, reference compound] | 5.6 nM | Ki (GHS-R1a [2]): 0.9 nM |
| Cc1ccccc1-c1nc2ccc(Oc3ccc(F)cc3)cc2c(=O)n1C[C@H]1CCCN(C(C)C)C1 [Compound 5f, (S)-6-(4-fluorophenoxy)-3-((1-isopropylpiperidin-3-yl)methyl)-2-(o-tolyl)quinazolin-4(3H)-one, reference compound] | 3.7 nM | IC50 (GHS-R1a [2]; literature value (Bayer work), read-out: IC50 reported for prior art compound): 0.9 nM; Ki (GHS-R1a [2]): 0.9 nM; binding affinity with GHS-R1a, stated in words (GHS-R1a [1]): equivalent binding affinity with natural ghrelin |
| Cc1ccccc1-c1nc2ccc(Oc3ccc(F)cn3)cc2c(=O)n1C[C@H]1CCCNC1 [Compound 4b, (S)-6-((5-fluoropyridin-2-yl)oxy)-3-(piperidin-3-ylmethyl)-2-(o-tolyl)quinazolin-4(3H)-one] | 52 nM | – |

Reference: patent US11186571B2, “Quinazolinone derivatives useful for imaging” (LONDON HEALTH SCIENCES CENTRE RESEARCH INC., priority 2017, dated 2021)
